{"source": "paper PMC10762662", "about": "“An orally-available monovalent SMAC mimetic compound as a broad-spectrum antiviral” (Protein & Cell, 2023)", "experiment_in_all_cases": "BIR3 domain binding IC50 (assay format not stated)", "key": {"[1]": {"biological_target": "T1, XIAP (Homo sapiens, UniProt P98170)", "T1 construct": "BIR3 domain", "T1 sequence (P98170 241-356 limits assumed)": "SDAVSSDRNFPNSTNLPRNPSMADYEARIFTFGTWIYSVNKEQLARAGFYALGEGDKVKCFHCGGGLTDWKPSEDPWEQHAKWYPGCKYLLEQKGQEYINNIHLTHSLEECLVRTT"}, "[2]": {"biological_target": "T2, cIAP2 (Homo sapiens, UniProt Q13489)", "T2 construct": "gene BIRC3; BIR3 domain", "T2 sequence (Q13489 250-317 limits assumed)": "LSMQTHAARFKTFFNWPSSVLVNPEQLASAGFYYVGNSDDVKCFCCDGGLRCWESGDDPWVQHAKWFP"}, "[3]": {"biological_target": "T3, cIAP1 (Homo sapiens, UniProt Q13490)", "T3 construct": "gene BIRC2; BIR3 domain", "T3 sequence (Q13490 264-331 limits assumed)": "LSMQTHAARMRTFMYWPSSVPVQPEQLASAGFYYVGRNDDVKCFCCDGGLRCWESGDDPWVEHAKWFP"}}}
{"smiles": "CN[C@@H](C)C(=O)Nc1ccc(-c2c(C)nc3ccccn23)c(C#Cc2ccc3ncccc3c2)n1", "note": "[BI-82]", "values": [{"measurement": "IC50", "setting": "[1]", "value": "0.273 ± 0.0825", "unit": "µM"}, {"measurement": "IC50", "setting": "[2]", "value": "0.0171 ± 0.00537", "unit": "µM"}, {"measurement": "IC50", "setting": "[3]", "value": "0.0009 ± 0.00015", "unit": "µM"}]}
